The assay concerns the target T1, HUNK (Homo sapiens, UniProt P57058).
T1 sequence (P57058 1-714): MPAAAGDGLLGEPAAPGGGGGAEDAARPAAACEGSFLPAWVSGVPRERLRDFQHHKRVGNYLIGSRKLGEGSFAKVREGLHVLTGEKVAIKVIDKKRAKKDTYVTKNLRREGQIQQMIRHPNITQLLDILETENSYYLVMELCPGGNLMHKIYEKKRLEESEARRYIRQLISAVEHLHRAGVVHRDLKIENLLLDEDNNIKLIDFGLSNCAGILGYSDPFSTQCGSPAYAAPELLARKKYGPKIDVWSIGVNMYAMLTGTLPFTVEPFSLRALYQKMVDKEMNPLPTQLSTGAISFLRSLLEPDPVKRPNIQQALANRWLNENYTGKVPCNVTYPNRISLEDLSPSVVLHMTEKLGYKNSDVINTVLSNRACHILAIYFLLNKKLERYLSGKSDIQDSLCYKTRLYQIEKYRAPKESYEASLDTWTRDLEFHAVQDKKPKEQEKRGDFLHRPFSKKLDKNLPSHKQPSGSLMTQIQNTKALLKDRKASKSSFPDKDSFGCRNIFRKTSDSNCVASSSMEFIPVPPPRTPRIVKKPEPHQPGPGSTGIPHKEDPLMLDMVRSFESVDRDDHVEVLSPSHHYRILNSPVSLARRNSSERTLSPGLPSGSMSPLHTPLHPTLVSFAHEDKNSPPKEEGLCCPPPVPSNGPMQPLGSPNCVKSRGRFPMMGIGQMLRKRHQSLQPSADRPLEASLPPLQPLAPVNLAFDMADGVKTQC
In words: KINOMEscan binding assay. The arrangement: purchased Eurofins DiscoverX (KINOMEscan scanMAX service). The following applies: 300 nM; read-out: inhibition of kinase binding (KINOMEscan).

The inhibition is the relative decrease from the control value, in per cent. In the case of `CC#CC(=O)N1CC[C@@H](n2c(=O)n(-c3ccc(Oc4ccccc4)cc3)c3c(N)ncnc32)C1` [Tirabrutinib], the inhibition at 0.3 µM was 89%.

Values taken from publication PMC10004634 (PLOS ONE, 2023).
